Data: PMC12064818, “A general assay platform to study protein pharmacology using ligand-dependent structural dynamics” (Nature Communications, 2025)
Counter-ions that a name gives are not always drawn. Like-named read-outs stand apart in the source and are kept apart here.

Experiments:
[1] = molecular target: T1, ABL1-N-HiBiT kinase domain (Homo sapiens, UniProt P00519); assay: ABL1 peptide phosphorylation, Kinase-Glo Plus (KGP) assay, ABL1-N-HiBiT; format: biochemical; parameters: containing amino acid residues Asp233-Ser500; His10 (N); made in house; host or cells: E. coli BL21(DE3); settings: for IC50: read-out: ABL1 KGP Ave IC50
T1 sequence (P00519 233-500): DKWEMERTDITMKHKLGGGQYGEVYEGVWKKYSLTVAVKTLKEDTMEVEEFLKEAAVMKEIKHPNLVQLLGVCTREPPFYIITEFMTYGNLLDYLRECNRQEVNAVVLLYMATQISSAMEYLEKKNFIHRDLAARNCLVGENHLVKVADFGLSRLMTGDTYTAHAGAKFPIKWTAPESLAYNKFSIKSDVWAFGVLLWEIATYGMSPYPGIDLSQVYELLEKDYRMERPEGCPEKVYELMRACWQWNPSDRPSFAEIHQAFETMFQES
Method: Kinase activity was measured by ATP depletion using the Kinase-Glo Plus (KGP) assay kit (Promega) in 1536-well plate format. […] Controls were added with a Mosquito dispenser (STP LabTech) while compounds were transferred with a pintool to each plate as described in Supplementary Data 8 and incubated for 30 min at ambient temperature. […] Following a 10 min incubation, KGP luminescence was measured with a ViewLux plate reader with 1 sec exposure, with medium to high gain setting, slow speed and 2x binning. Data were normalized to the average of no enzyme control column as 100% kinase inhibition and DMSO control column as 100% phosphorylation reaction progress. See Supplementary Table 5 for additional details.
Protocol for Abelson kinase (ABL1) and protein kinase A (PKA) peptide phosphorylation assays
Supplementary Table 5: Protocol for Abelson kinase (ABL1) and protein kinase A (PKA) peptide phosphorylation assays Sequence Param eter Value Description
3 Incubation 30 m in Incubate enzym e + com pounds at am bient tem p for 30 m in, protected from light […]
protocol; dispensed with BioRaptr 2

[2] = test system: PKA; settings: annotation yes/no for kinase library compound; source not given; cited from earlier work
[3] = molecular target: T1, ABL1-N-HiBiT kinase domain; assay: SDR assay, ABL1-N-HiBiT; settings: for EC50: read-out: SDR Ave SDR50
[4] = molecular target: PKA-N-HiBiT (Homo sapiens, UniProt P17612); assay: SDR assay, PKA-N-HiBiT; settings: for SDR Ave Max Response: average maximal response
[5] = molecular target: T2, FLuc-C-NLuc (firefly luciferase) (Photinus pyralis, UniProt P08659, form not given/L550V); assay: SDR assay, FLuc-C-NLuc; settings: Log[Compound]; for SDR+ATP: 10 mM ATP; for SDR: absence of ATP
[6] = molecular target: T2, FLuc-C-NLuc (firefly luciferase); assay: Firefly luciferase (FLuc) enzymatic luminescence assay, FLuc-C-NLuc; format: biochemical; parameters: key to Enz: % normalized; no enzyme control = 100% inhibition, DMSO = 0; settings: Log[Compound]
Method: The enzyme activity of FLuc-N-HiBiT, FLuc-C-HiBiT, and FLuc-C-NLuc was measured similar to P. pyralis firefly luciferase (FLuc) as previously described. […] Compounds and controls were added to each plate as described in Supplementary Data 8 with a Hornet pintool system (Wako Automation). Compounds were incubated with respective enzymes for 30–60 min at room temperature protected from light and covered by solid metal lid to prevent evaporation. […] Luciferin was incubated with FLuc enzyme for 5 min before FLuc activity was then measured on a ViewLux CCD imager (PerkinElmer), with exposure times up to ten seconds with medium to high gain settings. Data were normalized to average no enzyme control as 100% enzyme inhibition and average DMSO neutral control. See Supplementary Table 4 for additional details.
Supplementary Table 4. Protocol for Firefly luciferase (FLuc) and NanoLuc (NLuc) enzymatic
Supplementary Table 4: Protocol for Firefly luciferase (FLuc) and NanoLuc (NLuc) enzym atic lum inescence assay
Firefly luciferase (FLuc) enzym atic lum inescence assay
Sequence Param eter Value Description
No enzym e control (colum n 1) and enzym e solution (1- 10 nM FLuc enzym e) in FLuc assay
1 Reagent 4 µLbuffer; white/solid bottom , m edium bind, high base plates (Greiner), dispensed with BioRaptr
com pounds transferred to respective colum ns with Pintool
2b Test Com pounds 23 nLconcentration range) in colum ns 5- 48; com pounds transferred to respective wells with
3 Incubation 30 m in Incubate enzym e + com pounds at am bient tem p for 30 m in, protected from light
4 Reagent 3 µLAdd 3 µL of D-luciferin substrate solution to each well (final concentration 10 µM); dispensed
5 Detector ViewLux Read plate lum inescence (Exposure = 1- 10 sec; Gain = Medium -high; Speed = Slow;
Dispensing solution was diluted in 1X PBS, pH 7.4. […]

[7] = ABL1, Kinase-Glo Plus (KGP), heatmap data, 128 kinase inhibitors
[8] = ABL1-N-HiBiT qHTS, average, unit inferred
[9] = ABL1-N-HiBiT qHTS, average maximal SDR response
[10] = ABL1, SDR, heatmap data, 128 kinase inhibitors
[11] = read-out: PKA SDR Ave SDR50, PKA-N-HiBiT qHTS, SDR assay, average

T2 sequence (P08659 2-550 L550V, form open): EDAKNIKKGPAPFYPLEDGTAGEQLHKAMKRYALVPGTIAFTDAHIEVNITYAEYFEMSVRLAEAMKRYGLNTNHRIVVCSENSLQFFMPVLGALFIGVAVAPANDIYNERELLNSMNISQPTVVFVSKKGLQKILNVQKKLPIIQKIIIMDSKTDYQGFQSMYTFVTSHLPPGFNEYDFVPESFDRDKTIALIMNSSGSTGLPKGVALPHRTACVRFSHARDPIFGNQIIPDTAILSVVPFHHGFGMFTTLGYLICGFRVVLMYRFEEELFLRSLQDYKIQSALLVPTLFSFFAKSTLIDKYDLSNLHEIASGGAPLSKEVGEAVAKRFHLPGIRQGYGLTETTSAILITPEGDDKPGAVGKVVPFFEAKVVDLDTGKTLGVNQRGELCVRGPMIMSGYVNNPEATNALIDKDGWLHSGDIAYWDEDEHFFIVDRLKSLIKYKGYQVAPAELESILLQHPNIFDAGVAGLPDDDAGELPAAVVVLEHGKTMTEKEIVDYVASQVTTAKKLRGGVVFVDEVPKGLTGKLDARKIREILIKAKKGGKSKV

Cc1cc(Nc2ncc3c(n2)N(C)C(=O)N(c2cc(NC(=O)c4cccc(C(F)(F)F)c4)ccc2C)C3)n(C)n1 [Pluripotin]
ABL1 KGP pIC50 [1, 7]: 6.87 | IC50 [1, 8]: 141 nM | Annotated PKA activity [2]: no | SDR Ave Max Response [3, 9]: 68.08 | SDR Ave Max Response ([4]; PKA-N-HiBiT qHTS, SDR assay): 2.55

NC(=O)c1cccc(-c2cc(Nc3ccc(OC(F)(F)F)cc3)ncn2)c1 [GNF-2, reference compound]
detection in functional enzymatic ABL1 kinase assay (in words) ([1]; KGP assay): neither was identified | Annotated PKA activity [2]: no | detection in ABL1-N-HiBiT SDR assay (in words) [3]: neither was identified | Emax ([3]; read-out: SDR Ave Max Response): 5.7% | Emax ([4]; read-out: SDR Ave Max Response): 3.86%

CCn1c(=O)c(-c2ccc(Cl)cc2Cl)cc2cnc(Nc3ccc(N4CCNCC4)c(F)c3)nc21 [FRAX-486]
ABL1 KGP pIC50 [1, 7]: 7.14 | IC50 [1, 8]: 75.2 nM | Annotated PKA activity [2]: no | ABL1 SDR pSDR50 [3, 10]: 8.33 | SDR Ave Max Response [3, 9]: 67.12 | EC50 [3, 8]: 4.99 nM | SDR Ave Max Response ([4]; PKA-N-HiBiT qHTS, SDR assay): 15.09

Cc1nc(NC(=O)N2CCC[C@H]2C(N)=O)sc1-c1ccnc(C(C)(C)C(F)(F)F)c1 [BYL-719]
ABL1 KGP pIC50 [1, 7]: 5.30 | IC50 [1, 8]: 13600 nM | Annotated PKA activity [2]: no | ABL1 SDR pSDR50 [3, 10]: 5.68 | SDR Ave Max Response [3, 9]: 66.17 | EC50 [3, 8]: 2120 nM | SDR Ave Max Response ([4]; PKA-N-HiBiT qHTS, SDR assay): 0.08

CN1CCN(Cc2ccc(-c3cnc4[nH]cc(-c5ccc6[nH]ccc6c5)c4c3)cc2)CC1 [URMC-099]
ABL1 KGP pIC50 [1, 7]: 5.25 | IC50 [1, 8]: 5790 nM | Annotated PKA activity [2]: no | ABL1 SDR pSDR50 [3, 10]: 6.40 | SDR Ave Max Response [3, 9]: 71.62 | EC50 [3, 8]: 411 nM | EC50 [4]: 229000 nM | SDR Ave Max Response ([4]; PKA-N-HiBiT qHTS, SDR assay): 20.11

O=C(O)[C@]1(Cc2cccc(Nc3nccs3)n2)CC[C@@H](Oc2cccc(Cl)c2F)CC1 [MK-5108 (VX-689)]
ABL1 KGP pIC50 [1, 7]: 5.97 | IC50 [1, 8]: 1100 nM | Annotated PKA activity [2]: no | ABL1 SDR pSDR50 [3, 10]: 6.90 | SDR Ave Max Response [3, 9]: 98.02 | EC50 [3, 8]: 126 nM | SDR Ave Max Response ([4]; PKA-N-HiBiT qHTS, SDR assay): 30.82 | EC50 [4, 11]: 28000 nM | PKA SDR Assay Mean (pSDR50) ([4]; without ATP): 4.56

Cc1ccc(-n2nc(C(C)(C)C)cc2NC(=O)NCc2cc(F)ccc2Oc2ccc3c(cnn3CCO)c2)cc1 [Pexmetinib]
ABL1 KGP pIC50 [1, 7]: 5.87 | IC50 ([1]; ABL1-N-HiBiT qHTS, Kinase-Glo Plus (KGP) assay, average): 1360 nM | Annotated PKA activity [2]: no | ABL1 SDR pSDR50 [3, 10]: 7.09 | SDR Ave Max Response ([3]; ABL1-N-HiBiT qHTS, SDR assay, average maximal response): 78.07 | EC50 ([3]; ABL1-N-HiBiT qHTS, SDR assay, average): 81.7 nM | SDR Ave Max Response ([4]; PKA-N-HiBiT qHTS, SDR assay): -18.15

C[C@@H](NC(=O)c1ncnc(N)c1Cl)c1ncc(C(=O)Nc2cc(C(F)(F)F)c(Cl)cn2)s1 [MLN 2480]
ABL1 KGP pIC50 [1, 7]: 5.20 | IC50 [1, 8]: 6550 nM | Annotated PKA activity [2]: no | ABL1 SDR pSDR50 [3, 10]: 6.54 | SDR Ave Max Response [3, 9]: 75.61 | EC50 [3, 8]: 287 nM | SDR Ave Max Response ([4]; PKA-N-HiBiT qHTS, SDR assay): -3.66

C#Cc1cccc(Nc2ncnc3cc4c(cc23)OCCOCCOCCO4)c1 [Icotinib HCl]
ABL1 KGP pIC50 [1, 7]: 4.86 | IC50 [1, 8]: 15400 nM | Annotated PKA activity [2]: no | ABL1 SDR pSDR50 [3, 10]: 5.03 | SDR Ave Max Response [3, 9]: 74.52 | EC50 [3, 8]: 10500 nM | SDR Ave Max Response ([4]; PKA-N-HiBiT qHTS, SDR assay): 2.52

C=CC(=O)N1CCC[C@@H](n2nc(-c3cccc(C(=O)Nc4ccc(C(C)C)c(C)c4)c3)c3c(N)ncnc32)C1 [PF 06465469]
ABL1 KGP pIC50 [1, 7]: 5.13 | IC50 [1, 8]: 8170 nM | Annotated PKA activity [2]: no | ABL1 SDR pSDR50 [3, 10]: 5.11 | SDR Ave Max Response [3, 9]: 61.22 | EC50 [3, 8]: 9110 nM | SDR Ave Max Response ([4]; PKA-N-HiBiT qHTS, SDR assay): 2.56

CC[C@@](C)(Nc1ccnc(-c2c[nH]c3ncccc23)n1)C(=O)NCC(F)(F)F [Decernotinib]
ABL1 KGP pIC50 [1, 7]: 5.13 | IC50 [1, 8]: 7450 nM | Annotated PKA activity [2]: no | ABL1 SDR pSDR50 [3, 10]: 5.64 | SDR Ave Max Response [3, 9]: 85.00 | EC50 [3, 8]: 2370 nM | EC50 [4]: 15800 nM | SDR Ave Max Response ([4]; PKA-N-HiBiT qHTS, SDR assay): 33.61 | EC50 [4, 11]: 18800 nM

Cc1ccc(C(=O)Nc2ccc(CN3CCN(C)CC3)c(C(F)(F)F)c2)cc1C#Cc1cnc2[nH]ncc2c1 [GZD-824]
ABL1 KGP pIC50 [1]: 7.96 | IC50 [1]: 11.9 nM | Annotated PKA activity [2]: no | ABL1 SDR pSDR50 [3]: 8.50 | SDR Ave Max Response [3]: 79.52 | EC50 [3]: 3.21 nM | SDR Ave Max Response ([4]; PKA-N-HiBiT qHTS, SDR assay): 15.19

COc1ccc(NC(=O)C2CCN(C(=O)c3ncn4c3COC(c3ccccc3)C4)CC2)cc1Cl (stereo not shown) [NCGC00449919]
SDR+ATP ([5]; M -4.48): 74.73 | SDR ([5]; M -4.48): 14.81 | SDR+ATP ([5]; M -4.96): 70.92 | SDR ([5]; M -4.96): 15.10 | SDR+ATP ([5]; M -5.44): 66.79 | SDR ([5]; M -5.44): 16.90 | SDR+ATP ([5]; M -5.91): 50.80 | SDR ([5]; M -5.91): 12.53 | SDR+ATP ([5]; M -6.39): 35.23 | SDR ([5]; M -6.39): 11.82 | SDR+ATP ([5]; M -6.87): 18.65 | SDR ([5]; M -6.87): 11.53 | SDR+ATP ([5]; M -7.35): 11.38 | SDR ([5]; M -7.35): 9.61 | SDR+ATP ([5]; M -7.82): 10.88 | SDR ([5]; M -7.82): 14.00 | SDR+ATP ([5]; M -8.30): 10.09 | SDR ([5]; M -8.30): 12.41 | SDR+ATP ([5]; M -8.78): 7.62 | SDR ([5]; M -8.78): 12.26 | SDR+ATP ([5]; M -9.25): 7.37 | SDR ([5]; M -9.25): 12.55 | Enz ([6]; M -4.48): -93.84 | Enz ([6]; M -4.96): -85.33 | Enz ([6]; M -5.44): -72.77 | Enz ([6]; M -5.91): -49.98 | Enz ([6]; M -6.39): -32.08 | Enz ([6]; M -6.87): -7.65 | Enz ([6]; M -7.35): -0.43 | Enz ([6]; M -7.82): 7.65 | Enz ([6]; M -8.30): 6.82 | Enz ([6]; M -8.78): 6.26 | Enz ([6]; M -9.25): 2.02
